Laboratory results taken from PubChem BioAssay (NCI).
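Values below derive from 48-hour exposures of cells grown in 96-well plates, with endpoints linearly interpolated between the two concentrations bracketing the appropriate inhibition level. Abbreviation: GI50, concentration required for 50% inhibition of growth. TGI is the concentration that stops growth completely.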

Columns and labels:
Experiment in all cases: inhibition of tumour cell growth, NCI panel, 48 h
[1] = system: A549 NSCLC
[2] = system: COLO 205 colon
[3] = system: HCT-15 colon
[4] = system: HS 578T breast
[5] = system: MALME-3M melanoma
[6] = system: NCI-H522 lung
[7] = system: SF-539 CNS
[8] = system: SNB-75 CNS
[9] = system: SR leukemia
[10] = system: UACC-62 melanoma

SMILES	GI50 [1] [µM]	TGI [1] [µM]	GI50 [2] [µM]	TGI [2] [µM]	GI50 [3] [µM]	TGI [3] [µM]	GI50 [4] [µM]	TGI [4] [µM]	GI50 [5] [µM]	TGI [5] [µM]	GI50 [6] [µM]	TGI [6] [µM]	GI50 [7] [µM]	TGI [7] [µM]	GI50 [8] [µM]	TGI [8] [µM]	GI50 [9] [µM]	TGI [9] [µM]	GI50 [10] [µM]	TGI [10] [µM]
Cc1cc2c3ccc(C)[n+](C)c3ccc2n1C	0.46	9.3	1.75	5.52	> 100	> 100	3.17	24.3	3.6	12.7	4.83	29.3	3.89	21.3	3.15	14.7	4.24	> 100	8.97	22.6
COc1ccc(C(OCC2OC(n3ccc(NC(=O)c4ccccc4)nc3=O)C(O)C2O)(c2ccccc2)c2ccccc2)cc1 (centres undefined)	–	14.9	–	3.7	–	3.87	–	4.86	–	3.73	–	5.61	–	3.94	–	22	–	4.96	–	21
O=C1C(=O)c2c(nc3ccc(Cl)cn23)-c2ccccc21	0.84	–	1.79	3.54	1.08	2.73	0.239	0.74	0.171	0.368	0.668	2	0.189	0.358	1.25	2.61	0.348	1.44	0.285	0.904
CNC(=O)OCc1c(COC(=O)NC)c(C)n(-c2ccc(Br)cc2)c1C	–	38.1	–	27.5	–	29.1	–	33.5	–	36.3	–	25.9	–	30.3	–	19.1	–	> 100	–	18.5
O[C@H]1CO[C@H]2[C@@H]1OC[C@@H]2Oc1ccc(Nc2ccnc(Nc3ccc(O[C@H]4CO[C@H]5[C@@H]4OC[C@@H]5O)c(Cl)c3)n2)cc1Cl	2.84	11.5	1.86	6.16	2.32	6.6	1.29	4.8	1.09	3.09	1.17	3.69	2.22	7.16	1.27	4.77	2.28	15.3	1.11	2.75
